Test results as given in the supplement of paper PMC10331698.
± gives the standard deviation of the averaged measurements.

Legend:
Assay in all cases: level (log10 ratio to DMSO vehicle control); higher = higher biomarker level / cell amount than vehicle control
Settings in all cases: in DMSO
[1] = compound: C=C(C)C(=O)OCCC(F)(F)C(F)(F)C(F)(F)C(F)(F)C(F)(C(F)(F)F)C(F)(F)F [(Perfluoro-5-methylhexyl)ethyl 2-methylprop-2-enoate]
Protocol: (§1)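 BioMAP Diversity Plus panel of 12 human primary cell co-culture systems (3C, 4H, LPS, SAg, BT, BF4T, BE3C, CASM3C, HDF3CGF, KF3CT, MyoF, Mphg). Compounds were added 1 h before stimulation and left for 24 h (MyoF 48 h; BT 72 h for soluble read-outs or 6 d for IgG). Biomarkers were read by ELISA, cytotoxicity by SRB, PBMC viability and proliferation by Alamar Blue. Each well value was divided by the mean of 8 DMSO control wells on the same plate and log10 transformed; duplicate blinded samples were tested at 4 concentrations.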

[2] = compound: O=S(=O)(O)C(F)(F)C(F)(F)C(F)(F)C(F)(F)C(F)(F)C(F)(F)F [Perfluorohexanesulfonic acid]
Protocol: as §1

[3] = compound: O=C(O)C(F)(F)C(F)(F)C(F)(F)C(F)(F)C(F)(F)C(F)(F)C(F)(F)C(F)F [9-H-Perfluorononanoic acid]
Protocol: as §1

[4] = compound: O=C(O)C(F)(F)OC(F)(F)C(F)(F)OC(F)(F)C(=O)O [Perfluoro-3,6-dioxaoctane-1,8-dioic acid]
Protocol: as §1

Pentafluoropropionamide = compound: NC(=O)C(F)(F)C(F)(F)F [Pentafluoropropionamide]
Protocol: as §1

[5] = compound: C=CC(F)(F)C(F)(F)C(F)(F)C(F)(F)C(F)(F)C(F)(F)C(F)(F)C(F)(F)C=C [1,8-Divinylperfluorooctane]
Protocol: as §1

[6] = compound: C=CC(=O)OCC(F)(F)C(F)(F)C(F)(F)C(F)(F)C(F)(F)C(F)(F)C(F)(F)F [1H,1H-Perfluorooctyl acrylate]
Protocol: as §1

Test System | level (log10) ([1]; 6700 nM) | level (log10) ([1]; 20000 nM) | level (log10) ([2]; 6700 nM) | level (log10) ([2]; 20000 nM) | level (log10) ([2]; 60000 nM) | level (log10) ([3]; 6700 nM) | level (log10) ([3]; 20000 nM) | level (log10) ([3]; 60000 nM) | level (log10) ([4]; 6700 nM) | level (log10) ([4]; 20000 nM) | level (log10) ([4]; 60000 nM) | level (log10) (Pentafluoropropionamide; 6700 nM) | level (log10) (Pentafluoropropionamide; 20000 nM) | level (log10) (Pentafluoropropionamide; 60000 nM) | level (log10) ([5]; 6700 nM) | level (log10) ([5]; 20000 nM) | level (log10) ([6]; 6700 nM) | level (log10) ([6]; 20000 nM) | level (log10) ([6]; 60000 nM)
HDF3CGF:Collagen III | -0.0195 ± 0.05 | 0.0105 ± 0.05 | -0.0005 ± 0.022 | 0.0005 ± 0.015 | 0.0105 ± 0.043 | -0.047 ± 0.013 | -0.115 ± 0.013 | -0.155 ± 0.057 | -0.0115 ± 0.013 | 0.002 ± 0.011 | 0.0535 ± 0.012 | 0.026 ± 0.02 | 0.009 ± 0.028 | 0.034 ± 0.0028 | 0.001 ± 0.024 | -0.0125 ± 0.029 | 0.067 ± 0.035 | 0.042 ± 0.04 | -0.0245 ± 0.084
lMphg:SRB | -0.0035 ± 0.0035 | -0.0105 ± 0.0021 | -0.016 ± 0.037 | -0.0045 ± 0.0078 | -0.0265 ± 0.029 | 0.0005 ± 0.00071 | 0.002 ± 0.0057 | -0.0115 ± 0.005 | -0.0035 ± 0.013 | -0.009 ± 0.014 | -0.0035 ± 0.015 | 0.004 ± 0.0071 | -0.0025 ± 0.0092 | -0.001 ± 0.0014 | 0.0125 ± 0.00071 | 0.019 ± 0.0028 | -0.006 ± 0.0071 | -0.013 ± 0.016 | -0.0035 ± 0.012
HDF3CGF:CCL2/MCP-1 | -0.0335 ± 0.0092 | -0.024 ± 0.023 | 0.009 ± 0.0057 | 0.007 ± 0.014 | 0.021 ± 0.031 | -0.023 ± 0.028 | -0.0185 ± 0.044 | -0.0415 ± 0.052 | 0 ± 0.016 | 0.005 ± 0.0071 | 0.0135 ± 0.016 | -0.024 ± 0.034 | -0.0245 ± 0.012 | -0.015 ± 0.031 | -0.022 ± 0.0042 | -0.005 ± 0.011 | -0.0055 ± 0.018 | -0.0235 ± 0.021 | -0.046 ± 0.03
CASM3C:CXCL8/IL-8 | 0.005 ± 0.037 | 0.019 ± 0.028 | -0.006 ± 0.013 | -0.003 | 0.026 ± 0.014 | -0.002 ± 0.0057 | -0.0045 ± 0.00071 | 0.0035 ± 0.0035 | 0.016 ± 0.042 | 0.0125 ± 0.011 | 0.023 ± 0.0071 | -0.007 ± 0.014 | -0.017 ± 0.0071 | -0.0005 ± 0.012 | -0.017 ± 0.011 | -0.0145 ± 0.015 | 0.004 ± 0.0099 | -0.006 ± 0.011 | 0.016 ± 0.0028
MyoF:TIMP-1 | -0.031 ± 0.023 | -0.024 ± 0.0057 | 0.0215 ± 0.064 | 0.0835 ± 0.053 | 0.099 ± 0.042 | 0.0495 ± 0.044 | 0.0665 ± 0.019 | 0.117 ± 0.037 | 0.0065 ± 0.056 | 0.02 ± 0.037 | 0.026 ± 0.0014 | -0.053 ± 0.027 | -0.048 ± 0.034 | -0.0225 ± 0.064 | -0.0315 ± 0.054 | 0.01 ± 0.076 | 0.0075 ± 0.012 | 0.037 ± 0.0014 | 0.0405 ± 0.005
CASM3C:CD106/VCAM-1 | -0.017 ± 0.014 | -0.0175 ± 0.026 | -0.0145 ± 0.023 | -0.0175 ± 0.016 | -0.047 ± 0.024 | -0.0215 ± 0.012 | -0.019 ± 0.02 | -0.0315 ± 0.005 | -0.005 ± 0.0014 | -0.003 ± 0.0042 | 0.0175 ± 0.042 | -0.016 ± 0.016 | -0.014 ± 0.02 | -0.022 ± 0.011 | -0.018 ± 0.0042 | -0.019 ± 0.02 | 0.007 ± 0.016 | 0.014 ± 0.0014 | -0.0055 ± 0.0092
HDF3CGF:Proliferation 72hr | -0.015 ± 0.0028 | -0.014 | 0.054 ± 0.035 | 0.072 ± 0.051 | 0.107 ± 0.024 | 0.062 ± 0.018 | 0.0905 ± 0.049 | -0.0045 ± 0.098 | 0.0035 ± 0.0035 | 0.008 ± 0.016 | 0.012 ± 0.035 | 0.0225 ± 0.018 | 0.045 ± 0.042 | 0.076 ± 0.013 | 0.103 ± 0.028 | -0.046 ± 0.028 | 0.0035 ± 0.0092 | -0.056 ± 0.078 | -0.168 ± 0.0092
HDF3CGF:MMP-1 | 0.002 ± 0.0085 | 0.008 ± 0.018 | 0.001 ± 0.025 | -0.0095 ± 0.03 | 0.01 ± 0.028 | -0.047 ± 0.011 | -0.0915 ± 0.013 | -0.0745 ± 0.0078 | -0.004 ± 0.013 | -0.003 ± 0.014 | -0.0025 ± 0.018 | 0.006 ± 0.0085 | -0.011 ± 0.0085 | -0.01 | -0.0035 ± 0.005 | 0.0165 ± 0.012 | 0.013 ± 0.034 | 0.0425 ± 0.0078 | 0.0365 ± 0.019
MyoF:PAI-I | -0.0025 ± 0.011 | -0.019 ± 0.0085 | -0.0055 ± 0.013 | -0.0135 ± 0.015 | -0.0055 ± 0.012 | -0.0075 ± 0.011 | 0.004 ± 0.0042 | -0.0025 ± 0.0092 | 0.003 ± 0.013 | -0.0005 ± 0.0064 | 0.005 ± 0.0085 | 0.0075 ± 0.0021 | -0.002 ± 0.0071 | -0.004 ± 0.0057 | 0.003 ± 0.0071 | 0.006 ± 0.0071 | 0.005 ± 0.016 | -0.0005 ± 0.018 | -0.0065 ± 0.0078
3C:CCL2/MCP-1 | -0.0145 ± 0.025 | 0.006 ± 0.044 | 0.0055 ± 0.011 | 0.007 ± 0.017 | 0.017 ± 0.031 | -0.001 ± 0.021 | 0.0125 ± 0.0092 | 0.0415 ± 0.005 | 0.002 ± 0.016 | -0.007 ± 0.023 | 0.01 ± 0.03 | 0.006 ± 0.018 | -0.007 ± 0.0099 | 0.0275 ± 0.00071 | -0.0055 ± 0.0021 | 0.031 ± 0.025 | -0.0085 ± 0.00071 | -0.009 ± 0.023 | 0.017 ± 0.028
BE3C:PAI-I | 0.007 ± 0.03 | 0.0205 ± 0.019 | 0.0035 ± 0.00071 | -0.003 ± 0.0085 | 0.001 ± 0.0014 | 0.0195 ± 0.04 | 0.0405 ± 0.023 | -0.0295 ± 0.0021 | -0.013 ± 0.0042 | -0.0105 ± 0.019 | 0.0065 ± 0.022 | 0.002 ± 0.0057 | -0.009 ± 0.03 | -0.016 ± 0.0028 | 0.016 ± 0.017 | 0.016 ± 0.016 | -0.0295 ± 0.018 | -0.0285 ± 0.028 | -0.028 ± 0.03
CASM3C:IL-6 | -0.035 ± 0.0042 | 0.0345 ± 0.028 | -0.027 ± 0.017 | -0.0225 ± 0.0021 | -0.0025 ± 0.036 | -0.012 ± 0.0071 | -0.036 ± 0.0042 | -0.0045 ± 0.05 | -0.0065 ± 0.047 | -0.014 ± 0.027 | 0.0285 ± 0.00071 | -0.021 ± 0.017 | -0.025 ± 0.0028 | -0.003 ± 0.041 | -0.033 ± 0.024 | 0.003 ± 0.055 | -0.0135 ± 0.029 | -0.027 ± 0.048 | -0.0125 ± 0.03
KF3CT:PAI-I | -0.035 ± 0.047 | -0.05 ± 0.018 | -0.0105 ± 0.012 | -0.0325 ± 0.00071 | -0.0435 ± 0.0021 | -0.0045 ± 0.0035 | 0.007 ± 0.0071 | 0.003 ± 0.0085 | -0.0145 ± 0.025 | -0.0125 ± 0.00071 | 0.003 ± 0.018 | -0.006 ± 0.0057 | 0.002 ± 0.0014 | 0.0075 ± 0.0021 | 0.0215 ± 0.00071 | 0.018 ± 0.013 | -0.0075 ± 0.00071 | -0.01 ± 0.013 | -0.0135 ± 0.018
lMphg:IL-1alpha | 0.016 ± 0.018 | 0.0385 ± 0.026 | 0.023 ± 0.095 | 0.012 ± 0.047 | 0.0305 ± 0.063 | -0.002 ± 0.017 | 0.0105 ± 0.0092 | 0.042 ± 0.057 | 0.009 ± 0.018 | 0.001 | 0.0015 ± 0.0035 | -0.0005 ± 0.016 | -0.0055 ± 0.0092 | 0.0355 ± 0.083 | 0.003 ± 0.027 | 0.046 ± 0.034 | 0.0115 ± 0.022 | 0.002 ± 0.038 | 0.0155 ± 0.037
HDF3CGF:EGFR | -0.0695 ± 0.0078 | -0.0415 ± 0.0064 | 0.0045 ± 0.025 | -0.0125 ± 0.039 | -0.021 ± 0.04 | -0.011 ± 0.0028 | -0.024 ± 0.0057 | -0.034 ± 0.014 | -0.001 ± 0.0057 | 0.0145 ± 0.0021 | 0.0245 ± 0.035 | 0.006 ± 0.0085 | -0.005 ± 0.011 | 0.007 ± 0.021 | 0.033 | 0.005 ± 0.041 | 0.0075 ± 0.012 | 0.0265 ± 0.019 | -0.051 ± 0.093
